According to patent US5942663A, “Biocidal proteins” (Zeneca Limited, priority 1991, dated 1999):
Where two headings read alike, the source gives them in different places. No end group written: not given here.

Legend:
Assay type in all cases: cell-based
[1] = test system: Saccharomyces cerevisiae; assay: Inhibitory activity against yeast; design: key: +++:complete inhibition; +:some inhibition; -:no inhibition
Protocol: The inhibitory activity of Mj-AMPs against yeast, Saccharomyces cerevisiae was tested. The results shown in Table 5 indicate that Mj-AMPs do inhibit the growth of yeast at concentrations of 500 μg/ml or above.

[2] = test system: Bacillus megaterium; assay: Antibacterial activity in vitro test; conditions: B megaterium, 48 hours
Protocol: (§1) The antibacterial activity of the Mj-AMPs was tested against a range of gram-positive and gram-negative bacteria: Bacillus megaterium, Sarcina lutea, Escherichia coli and Erwinia carotovora. β-purothionin and UDA were also tested for comparison (see Example 7). Tests were performed in soft agarose medium containing 1% tryptone and, with or without 1 mM CaCl2 and 50 mM KCl. Absorbance, 595 nm, of the culture was measured after 48 hours.

[3] = test system: Escherichia coli; assay: Antibacterial activity in vitro test; conditions: E coli, 48 hours
Protocol: as §1

[4] = test system: Colletotrichum lindemuthianum; conditions: C lindemuthianum
[5] = test system: Botrytis cinerea; conditions: B cinerea, 48 hours of incubation
[6] = test system: Pyricularia oryzae
[7] = MEDIUM +Ca/K (1 mM CaCl2 and 50 mM KCl)

Mj-AMP1: antimicrobial protein from Mirabilis jalapa seeds, dimer of two 4 kDa subunits, 37 residues, SEQ ID NO:1 (QCIGNGGRCNENVGPPYCCSGFCLRQPGQGYGYCKNR; cysteine pairing not given here; also: homodimer)
Inhibitory activity against yeast ([1]; with Ca/K, 5 μg/ml): -
Inhibitory activity against yeast ([1]; with Ca/K, 50 μg/ml): -
Inhibitory activity against yeast ([1]; with Ca/K, 500 μg/ml): +++
Inhibitory activity against yeast ([1]; without Ca/K, 5 μg/ml): +
Inhibitory activity against yeast ([1]; without Ca/K, 50 μg/ml): +++
Inhibitory activity against yeast ([1]; without Ca/K, 500 μg/ml): +++
IC50 [2, 7]: 20 µg/mL
IC50 ([2]; MEDIUM -Ca/K): 6 µg/mL
IC50 [3, 7]: > 500 µg/mL
IC50 ([3]; MEDIUM -Ca/K): > 500 µg/mL
IC50 ([4]; 48 hours of incubation): 6 µg/mL
IC50 ([4]; after 72 hours): 12 µg/mL
IC50 [5]: 60 µg/mL
IC50 [6]: 6 µg/mL
